Holding throughout (format): in vivo
The test system of experiment [1] is human subjects (perception of dyspnoea). The experiment can be described thus: Borg score for dyspnoea before and after inhalation challenge. Further details: key to ΔBorg (change in Borg score before and after challenge): Borg score after minus before challenge; 0–10 scale. An excerpt:
(§1) The clinical study described in Examples 2-4 was randomized, double blind, crossover, and controlled. Each subject attended the laboratory on three occasions. Procedures on the initial screening visit included obtaining information about the study and a number of investigations in the following order: medical history, lung function, reversibility and skin prick testing. At visit 2 and 3, separated by 2-7 days, the subjects were subjected to either an ATP or AMP challenge in a randomized fashion such that, by the end of the study, each patient had been tested with both compounds. Before, immediately after, and 30 minutes after the challenge, lung function and Borg score for dyspnoea were determined, and symptoms other than dyspnoea were recorded.
The modified Borg scale used to quantitate dyspnoea in the clinical study described in Examples 2-4 was a category scale in which words describing degrees of breathlessness were anchored to numbers between 0 and 10. The subjects were asked to select a number whose corresponding words most appropriately described their perception of breathlessness. The change in dyspnoea was expressed as ΔBorg, which was the difference in Borg score before and after the challenge [Rutgers et al. (2000) Eur. Respir. J. 16:486-490; Burdon et al. (1982) Am. Rev. Respir. Dis. 126:825-828]. Terms and associated numbers used in assessing Borg score were as follows: 0, “nothing at all”; 0.5, “very, very slight”; 1, “very slight”; 2, “slight”; 3, “moderate”; 4, “somewhat severe”; 5, “severe”; 7, “very severe”; 9, “very, very severe (almost maximal)”; and 10, “maximal” [Burdon et al. (1982)].
(§2) For the tests described in Examples 2-4, ATP and AMP (Sigma, Gillingham, Dorset, England) were dissolved freshly in normal saline solution to produce a range of doubling concentrations from 0.227-929 umol/ml for ATP and from 0.138-1152 umol/ml for AMP and immediately used for bronchial challenge. The solutions were administered using a breath-activated dosimeter (Mefar, Bovezzo, Italy) with an output of 10 ul per inhalation [Prieto et al. (2003) Chest 123:993-997]. The subjects, while wearing a nose clip, inhaled (via a mouthpiece) five breaths of normal saline, followed by sequential doubling concentrations of either ATP or AMP from functional residual capacity to total lung capacity. FEV1 was measured from two minutes after the fifth inhalation of normal saline until there was a fall in FEV1 of ≧20% of its value recorded after saline inhalation or until maximal concentration of either ATP or AMP was inhaled. The provocative dose causing a 20% decrease in FEV1 (PD20) was calculated by interpolation of the logarithmic dose response curve.

The test system of experiment [2] is human subjects (cough, throat irritation, sputum). The experiment can be described thus: Symptoms other than dyspnoea recorded after inhalation challenge. The conditions noted are these: all subjects.
Source text: as §1, §2

Experiment [3] concerns vagal C fiber. Put plainly: Vagal activation experiments in dogs: action potentials in vagal C fibers. The conditions noted are these: anesthetized dog, rapid bolus; simultaneous recording with RAR-containing fiber. As for the experimental part: The experiments described in Example 5 were performed essentially as described in Pelleg et al. [(1996) J. Physiol. 490(1):265-275] and U.S. Pat. No. 5,874,420, both of which are incorporated herein by reference in their entirety. In brief, they were performed on anesthetized (sodium pentobarbitone, 30 mg kg^−1 plus 3 mg kg^−1 h^−1, intravenous) dogs artificially ventilated with room air using a respirator. Arterial blood pH, PO2, PCO2, body temperature were maintained as described in U.S. Pat. No. 5,874,420. A peripheral vein was cannulated for the administration of physiological saline solution and maintenance doses of anesthetic. Catheters were introduced via the femoral vein and left atrial appendage and positioned in the right atrium and left atrium for the administration of test solutions. The chest was opened by a longitudinal sternotomy. The right cervical vagosympathetic trunk was exposed by a midcervical longitudinal section of the skin and careful dissection of neck muscles and connective tissues. The edges of the cut skin were elevated and secured to create a trough which was filled with warm (about 37° C.) mineral oil. A section of the vagosympathetic trunk was placed on a small plate of black Perspex™ and fine branches were separated from the main bundle by careful dissection using microsurgical tools and a dissecting microscope (Model F212, Jenopik Jena, GmbH, Germany).
Extracellular neural action potentials were recorded using a custom-made bipolar electrode that contained two platinum-iridium wires (1.25 cm×0.0125 cm) connected to a high-impedence first-stage differential amplifier (model AC8331, CW, Inc., Ardmore, Pa.) via a shielded cable. The output of the first-stage amplifier was fed into a second-stage differential amplifier (model BMA-831/C, CWE, Inc.). Isolated fibers were laid on the pair of platinum-iridium wires. Vagal C fibers with chemosensitive endings have a sparse irregular discharge which is not associated with cardiac or respiratory cycles. […]
ATP (3 umole kg^−1) and capsaicin (10 ug kg^−1) were administered as a rapid bolus into the right atrium (5 ml test solution+5 ml physiological saline flush). α,βmATP and β,γmATP were given as one low dose only (0.75 umol kg^−1) to avoid systemic side effects. […] To exclude involvement of baroreceptors in the recorded neural activity, the latter was monitored before and after a bolus of nitroglycerine (1 mg; intravenous). […]

On to `Nc1ncnc2c1ncn2[C@@H]1O[C@H](COP(=O)(O)OP(=O)(O)OP(=O)(O)O)[C@@H](O)[C@H]1O` [ATP, adenosine 5′-triphosphate], for which the “ΔBorg (change in Borg score before and after challenge)” value in experiment [1] (COPD) came to 2.6. Further, in experiment [1] (COPD patients), the “Borg score after challenge (at PD20)” value came out at 2.7. Moreover, the “Borg score after challenge” value in experiment [1] (healthy smokers) is recorded as 1.3. Also, in experiment [1] (patients with asthma), the “Borg score after challenge (at PD20)” value worked out at 3.3; the “ΔBorg (change in Borg score before and after challenge)” value came to 3.2. In addition, in experiment [1] (smokers at risk), the “Borg score after challenge” value is given as 1.9. Moreover, in experiment [2], the “subjects who coughed after challenge” value is 90%, the “subjects who had sputum after challenge” value was determined as 28% and the “subjects who had throat irritation after challenge” value was 75%. Further, the “effect on action potentials of C fibers” value in experiment [3] is “stimulated both the C fibers and RAR-containing fibers”.

The values are drawn from US20060029548A1, “Methods of diagnosing, monitoring and treating pulmonary diseases” (priority 2004, published 2006).
